This is an account of results in patent US20180050018A1, “PERIPHERAL-ANTICHOLINERGIC MUSCARINIC AGONIST COMBINATION” (Chase Pharmaceuticals Corporation, priority 2015, published 2018).

The conditions of data set [1]: oral and iontophoretic patch administration, with oxadiazole muscarinic agonists; cited from earlier work.
Another data set has as its system rats and monkeys. The conditions noted are these: rats and monkeys (Schwarz 1999); cited from earlier work.
Data set [2] has as its system Male Swiss mice. The experiment in a line: T-maze continuous alternation task (T-CAT) in mice. The data set is classed as in vivo. From the text:
Evaluation of Cognition with Oxybutynin and Xanomeline in the T-maze Alternation Task in Mice The T-maze continuous alternation task (T-CAT) is useful as model for studying compounds with cognitive enhancing properties. The T-maze consists of 2 choice arms and 1 start arm mounted to a square center. Manual doors are provided to close specific arms during the force choice alternation task. Male Swiss mice (4-6 weeks old), N=10 per treatment group were used, and were pre-treated with: • Oxybutynin at the dose that blocked fecal pellet excretion in Study 2 of Example 1. […] Mice were randomly assigned to one of the different experimental treatment groups. Each animal was identified by its group name, cage number, series (day) of experiment, and number (1 to 10) written with permanent ink on the tail. The T-maze apparatus is made of gray Plexiglas with a main stem (55 cm long×10 cm wide×20 cm high) and two arms (30 cm long×10 cm wide×20 cm high) positioned at 90 degree angle relative to the main stem. A start box (15 cm long×10 cm wide) is separated from the main stem by a guillotine door. Horizontal doors are also provided to close specific arms during the force choice alternation task.
The experimental protocol consisted of one single session, which started with 1 “forced-choice” trial, followed by 14 “free-choice” trials. In the first “forced-choice” trial, animals were confined for 5 seconds to the start arm and then were released while either the left or the right goal arm was blocked by the horizontal door. Animals then negotiated the maze, eventually entering the open goal arm, and returned to the start position. […]
The apparatus was cleaned between each animal using 40% ethanol. […] The percentage of alternation over the 14 free-choice trials was determined for each mouse and was used as an index of working memory performance. […] The drug-induced improvement of memory was calculated by setting the respective response of the saline/vehicle as 100% and that of the test group as 0% reversion. […]

The subject of data set [3] is Male Swiss mice. The experiment in a line: Antagonism of xanomeline-induced diarrhea in mice by oxybutynin (fecal pellet count). It counts as in vivo. The conditions noted are these: oxybutynin i.p. 0.3 to 30 mg/kg, 30 minutes before xanomeline 30 mg/kg. As to the method:
Male Swiss mice (4-6 weeks old), N=10 per treatment group were used. Animals were pretreated with i.p. oxybutynin (a representative peripheral muscarinic receptor antagonist) or vehicle; 30 minutes later animals were treated with xanomeline at a dose of 30 mg/kg that caused diarrhea (as determined in Experiment 1). The dose of oxybutynin ordinarily ranged from 0.3 to 30 mg/kg. Mice were placed individually in cages without any bedding materials. During the experiment the number of fecal pellets was counted at different time-points as outlined below: • T-1h to T0: counting of the accumulated fecal pellets excreted, • T0: administration of oxybutinin. • T30 min: administration of vehicle or xanomeline. • T 30 min to T 2.5 h: counting of accumulated fecal pellets excreted. • T+2.5 h to T+4.5 h: counting of accumulated fecal pellets excreted. The total number of fecal pellets for each mouse was counted over time. An analysis of variance (ANOVA) was performed on the results. Fisher's Protected Least Significant Difference was used for pairwise comparisons. The p value ≦0.05 were considered significant. Grubbs' test (http (hypertext transfer protocol) www at graphpad.com/quickcalcs/Grubbs1.cfm) was used to detect outliers for each parameter in each experimental group.

For data set [4] the following is noted: cited from earlier work.
The test system of data set [5] is Male Swiss mice. The experiment in a line: Dose-response to xanomeline in a mouse model of diarrhea (fecal pellet count). The data set is classed as in vivo. The conditions noted are these: xanomeline i.p. 0.3 to 30 mg/kg. The text has this:
Male Swiss mice (4-6 weeks old), N=10 per treatment group were used, and treated intra-peritoneally (i.p.) with either vehicle (vehicle group) or increasing doses of xanomeline, a representative muscarinic agonist. Mice were randomly assigned to one of two experimental groups (vehicle; or increasing doses of xanomeline). Each animal was identified by its group name, cage number, series (day) of experiment, and number (1 to 10) written with permanent ink on the tail. Mice were placed individually in cages without any bedding materials. During the experiment the number of fecal pellets were counted at different time-points, starting one hour before the time of the administration of the test compound (TO), as outlined below: • T-1 h to T0: counting of the accumulated fecal pellets excreted. • T0: administration of the test compound, • T0 to T+2 h: counting of the accumulated fecal pellets excreted, • T+2 h to T+4 h: counting of the accumulated fecal pellets excreted, The total number of fecal pellets for each mouse was counted over time. An analysis of variance (ANOVA) was performed on the results. Fisher's Protected Least Significant Difference was used for pairwise comparisons; p values <0.05 were considered significant. Grubbs' test (http (hypertext transfer protocol) www at graphpad.com/quickcalcs/Grubbs1.cfm) was used to detect outliers for each parameter in each experimental group.

For data set [6], the system named is patients with Alzheimer disease. The conditions noted are these: cited from earlier work.

With `NC(=O)C(c1ccccc1)(c1ccccc1)[C@@H]1CCN(CCc2ccc3c(c2)CCO3)C1` [darifenacin], the “effectiveness relative to the other muscarinic antagonists” value in data set [1] is recorded as “less effective than the other muscarinic antagonists”.
In the case of `CO/N=C/C1=CCCN(C)C1` [milameline, (E)-N-methoxy-1-(1-methyl-1,2,5,6-tetrahydropyridin-3-yl)methanimine], the “doses producing central cholinergic action relative to doses stimulating peripheral cholinergic receptors” value with rats and monkeys was “doses slightly lower than those stimulating peripheral cholinergic receptors”.
Turning to `CCN(CC)CC#CCOC(=O)C(O)(c1ccccc1)C1CCCCC1` (stereo not shown) [oxybutynin], the “ability to perform the T-maze test after pretreatment” value in the data set with Male Swiss mice [2] (i.p. oxybutynin pretreatment 30 minutes before xanomeline) is “restored the animals' ability to perform the T-maze test”. The “antagonism of xanomeline-induced diarrhea” value with Male Swiss mice [3] is “dose-dependently antagonized the diarrhea induced by xanomeline”. In data set [1], the “effectiveness relative to the other muscarinic antagonists” value is listed as “less effective than the other muscarinic antagonists”.
As to `O=C(O[C@H]1CN2CCC1CC2)N1CCc2ccccc2[C@@H]1c1ccccc1` [solifenacin succinate, (1S)-(3R)-1-azabicyclo [2.2.2] oct-3-yl 3,4-dihydro-1-phenyl-2(1H)-iso-quinolinecarboxylate], the “half-life (in words)” value in data set [4] (in vivo) is “long half-life”.
Regarding `O=C(O[C@H]1C[C@H]2CC[C@@H](C1)[N+]21CCCC1)C(O)(c1ccccc1)c1ccccc1` [trospium chloride, Azoniaspiro [3β-benziloyloxy-(1α,5α)-nortropane-8,1′-pyrrolidine] chloride], the average plasma half-life entry in data set [4] (absorbed amount) is listed as “about 18 hours”.
For `CCCCCCOc1nsnc1C1=CCCN(C)C1` [xanomeline, 3-(4-hexyloxy-1,2,5-thiadiazol-3-yl)-1-methyl-5,6-dihydro-2H-pyridine], the “ability to perform the T-maze test at the higher dose” value in the data set with Male Swiss mice [2] (i.p. xanomeline, higher dose (dose that caused diarrhea)) is on record as “animals were too sick to perform the test”. Also, the “performance in the T-maze (percentage of alternation, working memory)” value with Male Swiss mice [2] (i.p. xanomeline, mice) is on record as “dose-dependent increase in performance in the T-maze”. Further, the “diarrhea (number of fecal pellets excreted)” value in the data set with Male Swiss mice [5] is given as “dose-dependently causes diarrhea”. Moreover, in data set [6] (6-month trial in Alzheimer disease patients (Bodick et al, 1997)), the “cognitive and behavioral symptoms compared to placebo” value is “significantly improve cognitive and behavioral symptoms of Alzheimer disease”. Moreover, the “discontinuation rate due to side effects” value in data set [6] (Alzheimer's patient population (Mirza et al. 2003)) is recorded as “higher than 50%”. In addition, the side effects entry in data set [6] (bradycardia, gastro-intestinal distress, excessive salivation, sweating, Alzheimer disease patients) was “dose-dependent unacceptable side effects”.
